From patent US8828983B2, “Macrocycles as factor XIa inhibitors” (Bristol-Myers Squibb Company, priority 2010, dated 2014)

Test system: not given
Assay: not given
Details: from C=CCCCc1ccccc1-c1cn(COCC[Si](C)(C)C)c([C@H](CC=C)NC(=O)OC(C)(C)C)n1; rcm bond; 12-membered ring; Grubbs II (0.4 eq)/pTsOH.H2O; DCM; 0.97 mM; 40.0 °C

SMILES	ring closure, isolated yield [%]
CC(C)(C)OC(=O)N[C@H]1CC=CCCCc2ccccc2-c2cn(COCC[Si](C)(C)C)c1n2	45.3

Same assay, conditions: from COC(=O)Nc1ccc(-c2cnc(C(Cc3ccc(F)c(CCC(=O)O)n3)NC(=O)OC(C)(C)C)o2)c(N)c1; amide bond; 14-membered ring; BOP/DMAP/DIEA; DCM/DMF; 1.1 mM; 25.0 °C; 16.0 h

SMILES	ring closure, isolated yield [%]
COC(=O)Nc1ccc2c(c1)NC(=O)CCc1nc(ccc1F)CC(NC(=O)OC(C)(C)C)C1=NC=C2O1 (centres unmarked)	23

Molecular target: purified human Factor XIa (Homo sapiens (Human), UniProt P03951)
Sequence (P03951 388-625): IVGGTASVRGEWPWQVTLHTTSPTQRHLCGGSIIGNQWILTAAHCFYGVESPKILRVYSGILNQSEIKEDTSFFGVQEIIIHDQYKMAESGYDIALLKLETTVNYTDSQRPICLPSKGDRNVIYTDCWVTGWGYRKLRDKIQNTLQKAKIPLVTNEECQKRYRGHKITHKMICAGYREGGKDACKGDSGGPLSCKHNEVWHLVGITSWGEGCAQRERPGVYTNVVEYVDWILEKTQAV
Sequence (P03951 19-387 partner): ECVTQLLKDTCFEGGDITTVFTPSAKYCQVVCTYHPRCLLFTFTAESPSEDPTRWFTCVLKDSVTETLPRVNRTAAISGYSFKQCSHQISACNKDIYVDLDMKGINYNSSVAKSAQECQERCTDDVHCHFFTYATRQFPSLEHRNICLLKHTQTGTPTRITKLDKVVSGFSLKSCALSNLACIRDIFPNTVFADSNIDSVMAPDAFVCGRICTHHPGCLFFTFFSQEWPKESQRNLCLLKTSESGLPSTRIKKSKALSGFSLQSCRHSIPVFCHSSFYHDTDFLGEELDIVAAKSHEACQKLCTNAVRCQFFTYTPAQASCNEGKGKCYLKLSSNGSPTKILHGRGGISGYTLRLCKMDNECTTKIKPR
Assay: Factor XIa assay (chromogenic substrate S-2366 hydrolysis, Ki)
Assay type: biochemical
Details: substrate S-2366, pH 7.4
Protocol: The effectiveness of compounds of the present invention as inhibitors of the coagulation Factors XIa, VIIa, IXa, Xa, XIIa, plasma kallikrein or thrombin, can be determined using a relevant purified serine protease, respectively, and an appropriate synthetic substrate. The rate of hydrolysis of the chromogenic or fluorogenic substrate by the relevant serine protease was measured both in the absence and presence of compounds of the present invention. […] A decrease in the rate of absorbance or fluorescence change in the presence of inhibitor is indicative of enzyme inhibition. Such methods are known to one skilled in the art. The results of this assay are expressed as the inhibitory constant, Ki.
Factor XIa determinations were made in 50 mM HEPES buffer at pH 7.4 containing 145 mM NaCl, 5 mM KCl, and 0.1% PEG 8000 (polyethylene glycol; JT Baker or Fisher Scientific). Determinations were made using purified human Factor XIa at a final concentration of 25-200 pM (Haematologic Technologies) and the synthetic substrate S-2366 (pyroGlu-Pro-Arg-pNA; CHROMOGENIX® or AnaSpec) at a concentration of 0.0002-0.001 M.
Values of Ki were determined by allowing the protease to react with the substrate in the presence of the inhibitor. Reactions were allowed to go for periods of 20-180 minutes (depending on the protease) and the velocities (rate of absorbance or fluorescence change versus time) were measured. The following relationships were used to calculate Ki values: (vo−vs)/vs=I/(Ki(1+S/Km)) for a competitive inhibitor with one binding site; or vs/vo=A+((B−A)/1+((IC50/(I)0))); and Ki=IC50/(1+S/Km) for a competitive inhibitor where: […]

SMILES	Ki [µM]
COC(=O)Nc1ccc2c(c1)NC[C@@H]1CCN(C1)C(=O)C[C@H](NC(=O)/C=C/c1cc(Cl)ccc1-n1cnnn1)c1nc-2c[nH]1 [Example 86]	2.39
COC(=O)Nc1ccc2c(c1)CCCCc1cccc(c1)C[C@H](NC(=O)/C=C/c1cc(Cl)ccc1-n1cnnn1)c1nc-2c(Cl)[nH]1 [Example 102]	0.00816
O=C(/C=C/c1cc(Cl)ccc1-n1cnnn1)N[C@H]1C/C=C/CCOc2ccccc2-c2c[nH]c1n2 [Example 1, (E)-3-(5-Chloro-2-tetrazol-1-yl-phenyl)-N-(E)-(S)-8-oxa-16,18-diaza-tricyclo[13.2.1.0^2,7]octadeca-1(17),2,4,6,11,15(18)-hexaen-14-yl-acrylamide]	2.98
COC(=O)Nc1ccc2c(c1)NC(=O)CCc1nc(ccc1F)CC(NC(=O)/C=C/c1cc(Cl)ccc1-n1cnnn1)c1nc-2cn1C (centres unmarked) [III-33]	0.103
COC(=O)Nc1ccc2c(c1)CCCCc1ccc(cc1)C[C@H](NC(=O)/C=C/c1cc(Cl)ccc1-n1cnnn1)c1nc-2c[nH]1 [Example 111]	0.071

Next, values leading:

Ki [µM]	SMILES
< 0.005	COC(=O)Nc1ccc2c(c1)NC(=O)CCc1nc(ccc1F)CC(NC(=O)/C=C/c1cc(Cl)ccc1C(C)=O)c1nc-2c[nH]1 (centres unmarked) [Example 140, Methyl N-{3-[(2E)-3-(2-acetyl-5-chlorophenyl)prop-2-enamido]-19-fluoro-15-oxo-5,14,22,23-tetraazatetracyclo[16.3.1.1^4,7.0^8,13]tricosa-1(22),4(23),6,8,10,12,18,20-octaen-11-yl}carbamate]
1.31	COC(=O)Nc1ccc2c(c1)NC(=O)CCc1nc(ccc1F)CC(NC(=O)[C@H]1CC[C@H](C)CC1)c1nc-2c[nH]1 (some centres unmarked) [Example 143, Methyl N-{19-fluoro-3-[(4-methylcyclohexane)amido]-15-oxo-5,14,22,23-tetraazatetracyclo[16.3.1.1^4,7.0^8,13]tricosa-1(22),4(23),6,8,10,12,18,20-octaen-11-yl}carbamate]
< 0.005	COC(=O)Nc1ccc2c(c1)NC(=O)CCCC[C@H](NC(=O)/C=C/c1cc(Cl)ccc1-n1cnnn1)c1nc-2c[nH]1 [Example 10, {(S)-14-[(E)-3-(5-Chloro-2-tetrazol-1-yl-phenyl)-acryloylamino]-9-oxo-8,16,18-triaza-tricyclo[13.2.1.0^2,7]octadeca-1(17),2,4,6,15(18)-pentaen-5-yl}-carbamic acid methyl ester]
0.145	COC(=O)Nc1ccc2c(c1)NC(=O)CCc1nc(ccc1F)CC(NC(=O)c1c(F)cc(C)cc1F)c1nc-2c[nH]1 (centres unmarked) [Example 142, Methyl N-{3-[(2,6-difluoro-4-methylbenzene)amido]-19-fluoro-15-oxo-5,14,22,23-tetraazatetracyclo[16.3.1.1^4,7.0^8,13]tricosa-1(22),4(23),6,8,10,12,18,20-octaen-11-yl}carbamate]
